Measured values reported in the supplement of paper PMC10307832.

Tests used:
Experiment in all cases: relative viability (nuclei count vs DMSO), 5 days (fraction); higher = more cells survive
Carfilzomib + Lapatinib = compound: CC(C)C[C@H](NC(=O)[C@H](CCc1ccccc1)NC(=O)CN1CCOCC1)C(=O)N[C@@H](Cc1ccccc1)C(=O)N[C@@H](CC(C)C)C(=O)[C@@]1(C)CO1 [Carfilzomib] + CS(=O)(=O)CCNCc1ccc(-c2ccc3ncnc(Nc4ccc(OCc5cccc(F)c5)c(Cl)c4)c3c2)o1 [Lapatinib] (partner 2 µM)
Procedure, shortened: (§1)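 Each reported value is a median over duplicate plates. It expresses relative viability: treated-well nuclei count divided by vehicle-well nuclei count. Lung cancer cell lines in 1536-well plates were dosed by pin tool a day after seeding, alone with one drug or with a fixed anchor-drug dose plus five library-drug doses (not always all listed) in √10 steps, and nuclei were counted after 5 days.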

Crizotinib + Olaparib = compound: C[C@@H](Oc1cc(-c2cnn(C3CCNCC3)c2)cnc1N)c1c(Cl)ccc(F)c1Cl [Crizotinib] + O=C(c1cc(Cc2n[nH]c(=O)c3ccccc23)ccc1F)N1CCN(C(=O)C2CC2)CC1 [Olaparib] (partner 8 µM)
Procedure, shortened: as §1

Olaparib + Palbociclib = compound: O=C(c1cc(Cc2n[nH]c(=O)c3ccccc23)ccc1F)N1CCN(C(=O)C2CC2)CC1 [Olaparib] + CC(=O)c1c(C)c2cnc(Nc3ccc(N4CCNCC4)cn3)nc2n(C2CCCC2)c1=O [Palbociclib] (partner 0.5 µM)
Procedure, shortened: as §1

Olaparib + Phenformin = compound: O=C(c1cc(Cc2n[nH]c(=O)c3ccccc23)ccc1F)N1CCN(C(=O)C2CC2)CC1 [Olaparib] + N=C(N)NC(=N)NCCc1ccccc1 [Phenformin] (partner 250 µM)
Procedure, shortened: as §1

| Cell Line | relative viability (Carfilzomib + Lapatinib; first compound 0.001 µM) | relative viability (Carfilzomib + Lapatinib; first compound 0.003162 µM) | relative viability (Carfilzomib + Lapatinib; first compound 0.01 µM) | relative viability (Carfilzomib + Lapatinib; first compound 0.03162 µM) | relative viability (Carfilzomib + Lapatinib; first compound 0.1 µM) | relative viability (Crizotinib + Olaparib; first compound 0.01 µM) | relative viability (Crizotinib + Olaparib; first compound 0.03162 µM) | relative viability (Crizotinib + Olaparib; first compound 0.1 µM) | relative viability (Crizotinib + Olaparib; first compound 0.3162 µM) | relative viability (Crizotinib + Olaparib; first compound 1 µM) | relative viability (Olaparib + Palbociclib; first compound 0.08 µM) | relative viability (Olaparib + Palbociclib; first compound 0.253 µM) | relative viability (Olaparib + Palbociclib; first compound 2.53 µM) | relative viability (Olaparib + Palbociclib; first compound 8 µM) | relative viability (Olaparib + Phenformin; first compound 0.08 µM) | relative viability (Olaparib + Phenformin; first compound 0.253 µM) | relative viability (Olaparib + Phenformin; first compound 2.53 µM) | relative viability (Olaparib + Phenformin; first compound 8 µM) |
| --- | --- | --- | --- | --- | --- | --- | --- | --- | --- | --- | --- | --- | --- | --- | --- | --- | --- | --- |
| NCI-H2087 | 0.823 | 1.35 | 0.829 | 0.112 | 0.116 | 0.614 | 0.59 | 0.595 | 0.397 | 0.716 | 0.282 | 0.211 | 0.259 | 0.217 | 0.633 | 0.42 | 0.436 | 0.383 |
| NCI-H2126 | 0.75 | 0.798 | 0.784 | 0.765 | 0.513 | 0.81 | 0.936 | 0.952 | 0.897 | 0.907 | 0.374 | 0.364 | 0.343 | 0.35 | 0.615 | 0.549 | 0.506 | 0.588 |
| NCI-H2170 | 0.264 | 0.263 | 0.269 | 0.312 | 0.207 | 0.558 | 0.625 | 0.642 | 0.558 | 0.62 | 0.427 | 0.395 | 0.411 | 0.315 | 0.458 | 0.355 | 0.431 | 0.385 |
| NCI-H2228 | 1.28 | 1.23 | 0.752 | 0.104 | 0.161 | 0.539 | 0.595 | 0.624 | 0.716 | 0.668 | 0.792 | 0.667 | 0.731 | 0.452 | 0.333 | 0.276 | 0.287 | 0.345 |
| NCI-H2347 | 0.976 | 1.09 | 0.979 | 0.306 | 0.51 | 0.584 | 0.57 | 0.568 | 0.554 | 0.578 | 0.381 | 0.431 | 0.393 | 0.409 | 0.458 | 0.339 | 0.313 | 0.347 |
| NCI-H2405 | – | 1.42 | 1.05 | 0.645 | 0.152 | 0.794 | 0.837 | 0.906 | 0.751 | 0.901 | 0.577 | 0.497 | 0.491 | 0.496 | 0.432 | 0.373 | 0.388 | 0.426 |
| NCI-H3122 | 1.03 | 0.942 | 1.09 | 0.978 | 0.806 | 0.597 | 0.57 | 0.61 | 0.637 | 0.631 | 0.206 | 0.193 | 0.194 | 0.188 | 0.425 | 0.362 | 0.344 | 0.306 |
